# Measurements taken from patent publication US20200206157A1, “COMPOSITION FOR USE IN THE PREVENTION AND TREATMENT OF PATHOLOGIES OF THE CARDIOVASCULAR APPARATUS” (PHARMANUTRA S.P.A., priority 2017, published 2020).
# Experiments:
# [1] = test system: vascular smooth muscle cells (VSMCs); assay: Vascular calcification induced by Pi 5 mM in VSMCs, extracellular calcium deposition on day 7; type: cell-based; conditions: rat VSMCs; for calcification inhibition: compared with 5 mM Pi in the same solvent; for effect of the individual compounds on the calcification (dose-response curves): Pi 5 mM
# Description: The experimental model consists of vascular smooth muscle cells (VSMCs) removed from the aorta of a rat (primary cells) and stimulated for 7 days with Na3PO4 (Pi) 5 mM to induce them to […]. […] On day 7, the effect of the treatment on the extracellular calcium deposition was analyzed both by a qualitative histological method (staining of calcium deposits by Alizarin Red Staining), and by a quantitative method, by measuring the amount of […] calcium by a spectrophotometric technique (FIG. 1). Each type of experiment was repeated at least 3 times and each condition was tested at least three times within every single experiment.
# [2] = test system: human aortic cell cultures; assay: Calcification induced by inorganic phosphate (Pi, 2 mM) in human aortic cell cultures, Alizarin Red Staining quantification; type: cell-based; conditions: products at 0.03%; for % VAR vs CTR+: average % variation of ARS vs positive control (Pi 2 mM only); for % VAR vs CTR−: average % variation of ARS vs untreated negative control; for % VAR vs CTR− / ARS mM average: Pi 2 mM; for ARS mM average: human aortic cells, 7 days, ARS quantity proportional to calcium content
# Description: (II) Similarly to what has been stated for the in vitro (I) study, the efficacy was tested of the composition according to the present invention comprising sucrosomial iron pyrophosphate (SRM) (Sucrosomiale®; Sucrosomial®), vitamin K2 menaquinone-7 (MK-7) and magnesium carbonate (MC) (composition called TRIO in Table 1 and FIG. 10) on the slowing of the progression of the vascular calcification induced by high levels of sodium phosphate (Pi) in a vascular cell culture and compared with the efficacy of the single components of the TRIO composition.
# In particular, to execute the efficacy test, human aortic cell cultures were treated for 7 days with inorganic phosphate (Pi, 2 mM), a known calcifying agent, to induce mineralization of the cells, and with the products subjected to a concentration test 0.03% (% g of compound under examination/solution volume) and subsequently treated with the compound compositions under examination. At the end of the experimental treatment, the calcium content was quantified by a colorimetric assay, i.e. staining of the calcium deposits by Alizarin Red Staining (ARS).
# The experimental design specified: untreated cell cultures (negative control CTR−), cell cultures (positive control CTR+) treated only with the calcifying agent (Pi) and cell cultures in which a calcification event was induced experimentally by the calcifying agent (Pi) and subsequently treated with the compositions/compounds under examination (0.03% concentrations) such as TRIO composition, only sucrosomial iron pyrophosphate (SRM) (Sucrosomiale®; Sucrosomial®), only vitamin K2 menaquinone-7 (MK-7) and only magnesium carbonate (MC).
# The Alizarin Red Staining S (ARS) is an anthraquinone staining solution that is widely used to evaluate calcium deposits in cell cultures. Alizarin Red Staining (ARS) is versatile because the dye can be easily extracted from the coloured single layer of the cells and can be promptly dosed. The ARS quantification assay provides a sensitive tool for partial quantification of calcium in a cell matrix. Mineralization is assessed by extracting the low pH calcified mineral, neutralization with ammonia hydroxide and 405 nm colorimetric detection.
# In the present study, the cells subjected to the different aforementioned treatments were fixed for ARS and the deposition of mineral was quantified by a commercially available colorimetric kit. For this purpose, a calibration curve was plotted with known and increasing ARS concentrations.
# The results are set out in Table 1 and FIG. 10 as an ARS quantity that is directly proportional to the calcium content in the different experimental treatments (average value±st. dev.) and as average % variation from the controls. The data obtained from the different experimental groups were analyzed statistically and compared with T-test. The significant values in FIG. 10 compared with the positive control (p<0.05) are marked with an asterisk (*).
Compound,calcification inhibition ([1]; in ethanol) [%],calcification inhibition ([1]; in ethyl acetate) [%],% VAR vs CTR+ [2] [%],% VAR vs CTR− [2] [%],ARS mM average [2] [mM],effect of the individual compounds on the calcification (dose-response curves) [1]
"CC(C)=CCC/C(C)=C/CC/C(C)=C/CC/C(C)=C/CC/C(C)=C/CC/C(C)=C/CC/C(C)=C/CC1=C(C)C(=O)c2ccccc2C1=O [9_MK7, menaquinone-7]",20,15 to 30,58.0,34.7,0.100,
"O=C([O-])[O-].[Mg+2] [11_MC, magnesium carbonate]",,,−49.6,61.7,0.120,
"[Cl-].[Cl-].[Mg+2] [MgCl2, magnesium chloride]",,,,,,"powerful calcification inhibitors, with a dose-dependent protective effect"
iron (III) pyrophosphate [Fe4(P2O7)3],,,,,,"powerful calcification inhibitors, with a dose-dependent protective effect"
